As usually defined, the IC50 is the concentration at which inhibition is half-maximal. By GI50 is commonly meant the concentration that inhibits growth by half.

In one experiment the target is T1, human TTK (Homo sapiens, UniProt P33981).
T1 construct: amino terminal GST fusion of full length human TTK; purchased Invitrogen
T1 sequence (P33981 1-857): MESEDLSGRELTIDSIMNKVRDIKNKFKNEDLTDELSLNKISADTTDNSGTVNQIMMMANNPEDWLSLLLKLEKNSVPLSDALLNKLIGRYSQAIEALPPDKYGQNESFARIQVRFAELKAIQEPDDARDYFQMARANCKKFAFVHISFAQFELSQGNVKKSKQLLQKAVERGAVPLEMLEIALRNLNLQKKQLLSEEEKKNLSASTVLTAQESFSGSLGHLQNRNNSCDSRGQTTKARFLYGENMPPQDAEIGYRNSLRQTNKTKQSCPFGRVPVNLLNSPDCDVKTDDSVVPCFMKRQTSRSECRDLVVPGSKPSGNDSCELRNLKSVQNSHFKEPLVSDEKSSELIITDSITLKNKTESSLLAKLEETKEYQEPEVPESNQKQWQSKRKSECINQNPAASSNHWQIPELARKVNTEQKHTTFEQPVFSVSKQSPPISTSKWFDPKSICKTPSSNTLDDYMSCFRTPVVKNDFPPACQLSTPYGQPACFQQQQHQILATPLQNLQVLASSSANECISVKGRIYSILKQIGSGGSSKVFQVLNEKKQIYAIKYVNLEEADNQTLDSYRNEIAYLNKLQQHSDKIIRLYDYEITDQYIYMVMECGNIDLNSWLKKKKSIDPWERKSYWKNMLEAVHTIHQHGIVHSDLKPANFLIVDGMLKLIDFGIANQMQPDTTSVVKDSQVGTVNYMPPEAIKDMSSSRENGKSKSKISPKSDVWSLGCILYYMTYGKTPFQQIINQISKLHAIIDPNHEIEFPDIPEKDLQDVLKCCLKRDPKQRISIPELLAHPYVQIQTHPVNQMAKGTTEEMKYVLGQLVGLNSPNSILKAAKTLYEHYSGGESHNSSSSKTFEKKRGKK
In words: TTK inhibition assay (indirect ELISA). The format is biochemical. To be noted: read-out: TTK IC50 Range.

For experiment [1], the system named is colon cancer cells (HCT116). Nature of the experiment: Cancer cell line growth inhibition (SRB assay). The format is cell-based. Particulars: Homo sapiens, HCT-116; read-out: Cancer Cell Line GI50 Range HCT116. For orientation: In SRB staining, fixed cells bind dye roughly in proportion to their protein.
Another experiment relates to Breast cancer cells. In words: Cancer cell line growth inhibition (SRB assay). It is filed as cell-based. Particulars: Homo sapiens; MDA-MB-468; read-out: Cancer Cell Line GI50 Range MDA-MB-468.
Experiment [2] has as its system ovarian cancer cells (PA-1). In words: Cancer cell line growth inhibition (SRB assay). The format is cell-based. To be noted: Homo sapiens, PA-1; read-out: Cancer Cell Line GI50 Range PA-1.
Method: Breast cancer cells (MDA-MB-231), colon cancer cells (HCT116) and ovarian cancer cells (PA-1) were seeded (1000 to 4000 in 80 μl per well depending on the cell growth rate) into 96 well plates 24 hours before compound overlay. Compounds were prepared as 10 mM stock solutions in 100% DMSO which were diluted with DMEM (Dulbecco's Modified Eagle's Medium) cell growth Medium (Invitrogen, Burlington, ON, Canada) containing 10% FBS (Fetal Bovine Serum) to concentrations ranging from 50 nM to 250 μM. Aliquots (20 μl) from each concentration were overlaid to 80 μl of the pre-seeded cells in the 96 well plates to make final concentrations of 10 nM to 50 μM. The cells were cultured for 5 days before the Sulforhodamine B assay (SRB) was performed to determine the compound's cell growth inhibition activity.
Sulforhodamine B (purchased from Sigma, Oakville, ON, Canada) is a water-soluble dye that binds to the basic amino acids of the cellular proteins. Thus, colorimetric measurement of the bound dye provides an estimate of the total protein mass that is related to the cell number. the cells are fixed in situ by gently aspirating off the culture media and adding 50 μl ice cold 10% Trichloroacetic Acid (TCA) per well and incubate at 4° C. for 30-60 min. The plates are washed with H2O five times and allowed to air dry for 5 min. Addition of 50 μl 0.4% (w/v) SRB solution in 1% (v/v) acetic acid to each well and incubation for 30 min at RT completes the staining reaction. Following staining, plates are washed four times with 1% acetic acid to remove unbound dye and then allowed to air dry for 5 min. The stain is solubilized with 100 μl of 10 mM Tris pH 10.5 per well. Absorbance is read at 570 nm.
The percentage (%) of relative growth inhibition was calculated by comparing to DMSO treated only cells (100%). GI50's were determined for compounds with cytotoxic activity. The GI50 was calculated using GraphPad PRISM software (GraphPad Software, Inc., San Diego, Calif., USA).

SMILES strings stand for the structures. A value given as a limit tells only on which side of the number the result lay.

For the compound `O=C(N[C@H](c1ccccn1)C1CC1)c1cc2c(-c3ccc(N4[C@@H]5CC[C@H]4COC5)cc3)n[nH]c2cc1F` [Example A272, 3-(4-((1R,5S)-3-oxa-8-azabicyclo[3.2.1]octan-8-yl)phenyl)-N-((S)-cyclopropyl(pyridin-2-yl)methyl)-6-fluoro-1H-indazole-5-carboxamide], the IC50 on human TTK was below 0.1 µM. The values for the concentration for 50% growth inhibition (GI50) (in experiment [1]; in the experiment with Breast cancer cells; in experiment [2]) were 0.1 to 0.5 µM, above 0.5 µM and 0.1 to 0.5 µM, respectively.
For `CCC(CC)(CNC(=O)c1ccc2[nH]nc(-c3ccc(N4CCOCC4)cc3)c2c1)N1CCOCC1` [Example A463, N-(2-ethyl-2-morpholinobutyl)-3-(4-morpholinophenyl)-1H-indazole-5-carboxamide], the IC50 on human TTK is below 0.1 µM. In addition, the GI50 in experiment [1] was 0.1 to 0.5 µM; in the experiment on Breast cancer cells, 0.1 to 0.5 µM; in experiment [2] it was below 0.1 µM.
`CC(C)[C@H](NC(=O)c1ccc2[nH]nc(-c3ccc(OC4CC5CCC(C4)N5C=O)nc3)c2c1)c1ccccc1Cl` (stereo partly drawn) [Example A354, N-((S)-1-(2-chlorophenyl)-2-methylpropyl)-3-(6-(((1R,3R,5S)-8-formyl-8-azabicyclo[3.2.1]octan-3-yl)oxy)pyridin-3-yl)-1H-indazole-5-carboxamide]: the IC50 on human TTK is below 0.1 µM. Further, the concentration for 50% growth inhibition (GI50) (in experiment [1]; in the experiment on Breast cancer cells; in experiment [2]) was 0.1 to 0.5 µM in each case.
As for `CC(C)CC(NC(=O)c1ccc2[nH]nc(-c3ccc(O[C@H]4C[C@H]5CC[C@@H](C4)N5C=O)cc3)c2c1)c1ccccc1` (stereo partly drawn) [Example A340, 3-(4-(((1R,3R,5S)-8-formyl-8-azabicyclo[3.2.1]octan-3-yl)oxy)phenyl)-N-(3-methyl-1-phenylbutyl)-1H-indazole-5-carboxamide], the half-maximal inhibitory concentration (IC50) at human TTK is below 0.1 µM. In addition, the results for the GI50 (in experiment [1]; in the experiment on Breast cancer cells; in experiment [2]) were 0.1 to 0.5 µM, 0.1 to 0.5 µM and below 0.1 µM, respectively.
With `CN1CC2(CC(O)c3cc(-c4n[nH]c5ccc(C(=O)N[C@H](c6ccccc6)C6CC6)cc45)ccc3O2)C1` (stereo partly drawn) [Example A256, N-((S)-cyclopropyl(phenyl)methyl)-3-(4′-hydroxy-1-methylspiro(azetidine-3,2-chroman]-6′-yl)-1H-indazole-5-carboxamide], on human TTK, the IC50 lay in the range of 0.1 to 0.5 µM. The GI50 (in experiment [1]; with Breast cancer cells; in experiment [2]) was above 0.5 µM throughout.
On to `O=C(NCC1(CN2CCOCC2)CCCCC1)c1ccc2[nH]nc(-c3ccc(N4CCOCC4)cc3)c2c1` [Example A509, N-((1-(morpholinomethyl)cyclohexyl)methyl)-3-(4-morpholinophenyl)-1H-indazole-5-carboxamide], for which the concentration for half-maximal inhibition (IC50) on human TTK is below 0.1 µM. Besides, the GI50 (in experiment [1]; in the experiment on Breast cancer cells; in experiment [2]) was above 0.5 µM throughout.
For `CN1CCC(Oc2ccc(-c3n[nH]c4ccc(C(=O)NC(c5ccccn5)C(C)(C)C)cc34)cc2)CC1` (stereo not shown) [Example A388], the IC50 on human TTK is below 0.1 µM. Further, the 50% growth inhibitory concentration (GI50) in experiment [1] is 0.1 to 0.5 µM; in the experiment on Breast cancer cells, above 0.5 µM; in experiment [2], 0.1 to 0.5 µM.
As to `O=C(N[C@H](c1ccsc1)C1CC1)c1ccc2[nH]nc(-c3ccc(OC4CCN(C[C@@H](O)C(F)(F)F)CC4)cc3)c2c1` [Example A223, N-((S)-cyclopropyl(thiophen-3-yl)methyl)-3-(4-((1-((R)-3,3,3-trifluoro-2-hydroxypropyl)piperidin-4-yl)oxy)phenyl)-1H-indazole-5-carboxamide], the IC50 on human TTK is below 0.1 µM. The GI50 is 0.1 to 0.5 µM in experiment [1], above 0.5 µM in the experiment with Breast cancer cells and 0.1 to 0.5 µM in experiment [2].
With `CN1CCC(Oc2ccc(-c3n[nH]c4ccc(C(=O)NC(c5ccccn5)C5CCCCC5)cc34)cc2)CC1` (stereo not shown) [Example A409, N-(cyclohexyl(pyridin-2-yl)methyl)-3-(4-((1-methylpiperidin-4-yl)oxy)phenyl)-1H-indazole-5-carboxamide], the 50% inhibitory concentration (IC50) at human TTK is below 0.1 µM. Further, the concentration for 50% growth inhibition (GI50) (in experiment [1]; in the experiment with Breast cancer cells; in experiment [2]) was 0.1 to 0.5 µM in each case.
For `O=C(NCC1(N2CCOCC2)CCCCC1)c1ccc2[nH]nc(-c3ccc(O[C@H]4C[C@H]5CC[C@@H](C4)N5C4COC4)cc3)c2c1` [Example A507, N-((1-morpholinocyclohexyl)methyl)-3-(4-(((1R,3R,5S)-8-(oxetan-3-yl)-8-azabicyclo[3.2.1]octan-3-yl)oxy)phenyl)-1H-indazole-5-carboxamide], at human TTK, the IC50 was below 0.1 µM. For the same compound, the concentration for 50% growth inhibition (GI50) (in experiment [1]; with Breast cancer cells; in experiment [2]) was 0.1 to 0.5 µM throughout.
Consider `CN1[C@@H]2CC[C@H]1C[C@H](Oc1ccc(-c3n[nH]c4ccc(C(=O)NC(c5ccccc5)C5CC5)cc34)cc1)C2` (stereo partly drawn) [Example A286, N-(cyclopropyl(phenyl)methyl)-3-(4-(((1R,3S,5S)-8-methyl-8-azabicyclo[3.2.1]octan-3-yl)oxy)phenyl)-1H-indazole-5-carboxamide], for which, on human TTK, the IC50 was below 0.1 µM. Moreover, the GI50 (in experiment [1]; in the experiment on Breast cancer cells; in experiment [2]) was below 0.1 µM each time.
`Cc1cc(=O)n(C)c2ccc(-c3n[nH]c4ccc(C(=O)NCC5(N6CCOCC6)CCCCC5)cc34)cc12` [Example A491, 3-(1,4-dimethyl-2-oxo-1,2-dihydroquinolin-6-yl)-N-((1-morpholinocyclohexyl)methyl)-1H-indazole-5-carboxamide]: at human TTK, the IC50 was below 0.1 µM. The 50% growth inhibitory concentration (GI50) (in experiment [1]; in the experiment on Breast cancer cells; in experiment [2]) was above 0.5 µM throughout.
On to `CN1C2CCC1CC(Oc1ccc(-c3n[nH]c4ccc(C(=O)N[C@@H](c5ccccn5)C5CC5)cc34)cc1)C2` (stereo partly drawn) [Example A380, N-((R)-cyclopropyl(pyridin-2-yl)methyl)-3-(4-(((1R,3R,5S)-8-methyl-8-azabicyclo[3.2.1]octan-3-yl)oxy)phenyl)-1H-indazole-5-carboxamide], for which the IC50 at human TTK was below 0.1 µM. Further, the GI50 is below 0.1 µM in experiment [1], 0.1 to 0.5 µM in the experiment on Breast cancer cells and below 0.1 µM in experiment [2].
Take `CC1=CC(C)(C)Oc2ccc(-c3n[nH]c4ccc(C(=O)N[C@H](c5ccccn5)C5CC5)cc34)cc21` [Example A237, (S)-N-(cyclopropyl(pyridin-2-yl)methyl)-3-(2,2,4-trimethyl-2H-chromen-6-yl)-1H-indazole-5-carboxamide]: the IC50 at human TTK was below 0.1 µM. The GI50 (in experiment [1]; with Breast cancer cells; in experiment [2]) was above 0.5 µM in each case.
Consider `O=C(NCC1(c2ccncc2)CC1)c1ccc2[nH]nc(-c3ccc(N4CCOCC4)cc3)c2c1` [Example A464, 3-(4-morpholinophenyl)-N-((1-(pyridin-4-yl)cyclopropyl)methyl)-1H-indazole-5-carboxamide], for which, at human TTK, the IC50 lay within 0.1 to 0.5 µM. For the same compound, the GI50 is above 0.5 µM in experiment [1], above 0.5 µM in the experiment with Breast cancer cells and 0.1 to 0.5 µM in experiment [2].
Consider `O=C(NCC1(c2cccnc2)CC1)c1ccc2[nH]nc(-c3ccc(N4CCOCC4)cc3)c2c1` [Example A461, 3-(4-morpholinophenyl)-N-((1-(pyridin-3-yl)cyclopropyl)methyl)-1H-indazole-5-carboxamide], for which, on human TTK, the concentration for half-maximal inhibition (IC50) is below 0.1 µM. Further, the concentration for 50% growth inhibition (GI50) (in experiment [1]; in the experiment on Breast cancer cells; in experiment [2]) was above 0.5 µM throughout.
Turning to `O=C(NC(c1ccccc1)C1CC1)c1ccc2[nH]nc(-c3ccc(O[C@H]4C[C@H]5CC[C@@H](C4)N5)cc3)c2c1` (stereo partly drawn) [Example A375, 3-(4-((1R,3R,5S)-8-azabicyclo[3.2.1]octan-3-yloxy)phenyl)-N-(cyclopropyl(phenyl)methyl)-1H-indazole-5-carboxamide], the IC50 at human TTK was below 0.1 µM. The GI50 in experiment [1] was below 0.1 µM; in the experiment on Breast cancer cells, 0.1 to 0.5 µM; in experiment [2], below 0.1 µM.
`O=CN1C2CCC1CC(Oc1ccc(-c3n[nH]c4ccc(C(=O)N[C@H](c5ccccn5)C5CCCC5)cc34)cc1)C2` (stereo partly drawn) [Example A348, N-((S)-cyclopentyl(pyridin-2-yl)methyl)-3-(4-(((1R,3R,5S)-8-formyl-8-azabicyclo[3.2.1]octan-3-yl)oxy)phenyl)-1H-indazole-5-carboxamide]: the IC50 at human TTK was below 0.1 µM. Also, the concentration for 50% growth inhibition (GI50) (in experiment [1]; in the experiment with Breast cancer cells; in experiment [2]) was below 0.1 µM throughout.
On to `CN1CCN(C2(CNC(=O)c3ccc4[nH]nc(-c5ccc(N6CCOCC6)cc5)c4c3)CCCC2)CC1` [Example A467, N-((1-(4-methylpiperazin-1-yl)cyclopentyl)methyl)-3-(4-morpholinophenyl)-1H-indazole-5-carboxamide], for which the IC50 at human TTK was in the range of 0.1 to 0.5 µM. Moreover, the concentration for 50% growth inhibition (GI50) (in experiment [1]; with Breast cancer cells; in experiment [2]) was above 0.5 µM in each case.
